Laboratory results reported in publication PMC6426897, “Inhibition of NLRP3 inflammasome activation by cell-permeable stapled peptides” (Scientific Reports, 2019).
Where a SMILES comes first, the peptide text is derived from it. Bridges are numbered along the chain shown (N, C = ends). [ ]: non-standard residue; d: D form. R8 = C=CCCCCCC[C@@](C)(N)C(=O)O; S5 = C=CCCC[C@](C)(N)C(=O)O

Tests used:
[1] = test system: ASC; assay: Imaging of ASC speck oligomerization in THP-1 cells; assay type: cell-based, human; conditions: THP-1, LPS 0.1 μg/ml 4 h, nigericin 10 μM 1 h; 100 μM peptide; Fig. 8E
Experimental: Figure 8 ASC peptides effectively block IL-1β and IL-18 release and ASC oligomerization in human blood monocytes. (A) IL-1β and IL-18 were measured in cell-free supernatants from THP-1 cells incubated with FAM-ASC^PYD #5 or FAM-ASC^PYD #6 (12.5, 25,50 and 100 μM) for 24 h and primed with LPS (0.1 μg/ml, 4 h) followed by stimulation with nigericin (10 μM, 1 h), as assessed by ELISA. (B) Production of IL-1β and IL-18 from human blood monocytes stimulated or not with LPS (0.1 μg/ml, 4 h) alone or in a combination of ATP (5 mM, 30 min) in the presence of FAM-ASC^PYD #5 or FAM-ASC^PYD #6 (25, 50 and 100 μM) peptides. (C,D) Western blot analysis of processed IL-1β p17 (C) and Casp-1 p20 (D) in cell-free supernatants of THP-1 cells primed with LPS (0.1 μg/ml, 4 h), followed by stimulation with nigericin (10 μM, 1 h) in the presence of FAM-ASC^PYD #5 (25, 50 and 100 μM), FAM-ASC^PYD #6 (50 and 100 μM) peptides, or DMSO vehicle. Expression of pro-IL-1β p35 and pro-Casp-1 p50 was assessed in cell lysates. GAPDH was used as loading control. (E) Imaging of ASC speck oligomerization in THP-1 cells treated with LPS (0.1 μg/ml, 4 h) and nigericin (10 μM, 1 h) in the absence or presence of FAM-ASC^PYD #5 or FAM-ASC^PYD #6 (100 μM) peptides. The number of ASC specks were counted manually in at least 100 cells, and the proportion of cells containing a speck was shown. […]

[2] = test system: NLRP3 inflammasome; assay: IL-18 release from THP-1 cells stimulated with LPS and nigericin (ELISA); assay type: cell-based, human; conditions: THP-1, LPS/nigericin; 12.5, 25, 50 and 100 μM; Fig. 8A
Experimental: Human monocytic THP-1 cells (1 × 10^7 cells) were plated in a 10-cm tissue culture dish and treated with PMA (200 nM) overnight to differentiate monocytic cells into macrophages. Cells were then washed and allowed to rest in fresh media for another day. For stimulation, differentiated THP-1 cells were trypsinized and seeded in 96-well plates (2 × 10^6/well). Peripheral blood mononuclear cells were isolated by Ficoll-Hypaque density gradient centrifugation from buffy coats obtained from anonymous donors provided by the National University Hospital Blood Bank, Singapore. Isolation of monocytes was performed using negative selection with the Monocyte Isolation Kit II (Miltenyi Biotech), following the manufacturer’s instructions. Monocytes were plated in tissue culture non-treated 96-well plates (2.5 × 10^5/well) in 250 µl RPMI 1640-Glutamax media supplemented with 3% human AB serum (Gemini Bio Products). […]
IL-1β levels were measured using antibodies from eBioscience (cat. #14-7018-81 and #13-7016-85), following the manufacturer’s instructions. IL-18 levels were measured using antibodies from MBL (D044-3 and D045-6) following the manufacturer’s instructions. The absorbance was measured at 450 nm with the reference wavelength at 570 nm, using an M200 Infinite plate reader (Tecan).

[3] = test system: THP-1 cells; assay: Internalization of FAM-labeled peptides by flow cytometry; assay type: in vitro ADME, human; conditions: THP-1, 37 °C, 4, 8 and 24 hours; FACS; three independent experiments
Experimental: As NLRP3 and ASC are cytosolic proteins, we examined whether the designed peptides could be taken up by monocytic cells to exert their biological effects. To assess peptide internalization, ms_NLRP3^PYD, ms_ASC^PYD #5 and #6 peptides were labeled with the FAM fluorophore at the N-terminus. Internalization of the FAM-labeled peptides was measured as the mean fluorescence intensity (MFI) by fluorescence-assisted cell sorting (FACS). THP-1 cells were incubated with FAM-labeled ms_NLRP3^PYD (12.5, 25 and 50 μM), ms_ASC^PYD #5 and #6 peptides (50 and 100 μM) for 4, 8 and 24 hours. The internalization of the three FAM-labelled peptides was concentration dependent (Fig. 7A,B). […] We also examined the internalization of FAM-labeled peptides in THP-1 cells by confocal microscopy. THP-1 cells were incubated with FAM-ms_NLRP3^PYD (100 μM), FAM-ms_ASC^PYD #5 or FAM-ms_ASC^PYD #6 (100 μM) for 4, 8 and 18 hours. FAM-labeled peptides localized primarily in the cytosol, but not in the nucleus, of THP-1 cells (Fig. 7C).
THP-1 cells (0.5 × 10^6) were incubated with FAM-NLRP3^PYD (12.5-25-50 μM), FAM-ASC^PYD #5 or FAM-ASC^PYD #6 (50-100 μM) peptides in a 6 well-plate. After 4, 8 and 24 h incubation, THP-1 cells were washed twice with PBS and harvested. The analysis was performed on a BD FACSCANTO II (BD Biosciences), and the data were analyzed using FlowJo (Treestar).

Row | Compound | ASC speck formation [1] | IL-18 production (in words) [2] | Fluorescent signal (MFI) of internalized peptide over time [3]
1 | CC[C@H](C)[C@@H]1NC(=O)[C@H](CCCCN)NC(=O)[C@H](C)NC(=O)[C@H](CC(C)C)NC(=O)[C@H](CCCCN)NC(=O)[C@](C)(NC(=O)[C@H](C)NC(=O)[C@H](CCCNC(=N)N)NC(=O)[C@H](C)NC(=O)[C@@H](NC(C)=O)[C@@H](C)O)CCCCCCC=CCCC[C@@](C)(C(=O)N[C@@H](CCC(=O)O)C(=O)N[C@@H](CO)C(=O)N[C@H](C(N)=O)C(C)C)NC(=O)[C@H](CCCCN)NC1=O [ms_ASC^PYD #5] (Ac-TARA[R8]KLAKIK[S5]ESV-NH2; staple 5-12) | significantly inhibited speck formation | decreased IL-18 production by LPS/nigericin-stimulated THP-1 cells in a dose-dependent manner | the fluorescent intensity subsequently decreased over-time
2 | CC[C@H](C)[C@@H]1NC(=O)[C@H](CCCCN)NC(=O)[C@H](C)NC(=O)[C@H](CCCCN)NC(=O)[C@H](CCCCN)NC(=O)[C@](C)(NC(=O)[C@H](C)NC(=O)[C@H](CCCNC(=N)N)NC(C)=O)CCCCCCC=CCCC[C@@](C)(C(=O)N[C@@H](CCC(=O)O)C(=O)N[C@@H](CO)C(=O)N[C@H](C(N)=O)C(C)C)NC(=O)[C@H](CCCCN)NC1=O [ms_ASC^PYD #6] (Ac-RA[R8]KKAKIK[S5]ESV-NH2; staple 3-10) | significantly inhibited speck formation | decreased IL-18 production by LPS/nigericin-stimulated THP-1 cells in a dose-dependent manner | –
